Here are results for six compounds from article PMC9377253, “Antiproliferative and cytotoxic effects of sesquiterpene lactones isolated from Ambrosia artemisiifolia on human adenocarcinoma and normal cell lines” (Pharmaceutical Biology, 2022).

The test system of series [1] is multidrug-resistant Colo 320 colonic adenocarcinoma cells expressing the ABCB1 transporter. Description: Checkerboard combination assay with doxorubicin. It counts as cell-based, human. The procedure:
A checkerboard microplate method was applied to study the effect of drug interactions between the compounds and doxorubicin. The assay was carried out using multidrug-resistant Colo 320 colonic adenocarcinoma cells expressing the ABCB1 transporter. The final concentration of the chemotherapeutic agent doxorubicin used in the combination experiment was chosen in accordance with their antiproliferative activity previously determined. The dilutions of the chemotherapeutic drug were made in a horizontal direction in 100 μL, and the dilutions of the compounds vertically in the microtitre plate in 50 μL volume. The cells were re-suspended in culture medium and distributed into each well in 50 μL containing 6 × 10^3 cells each. The plates were incubated for 72 h at 37 °C in 5% CO2 atmosphere. The cell growth rate was determined after MTT staining. At the end of the incubation period, 20 μL of MTT (thiazolyl blue tetrazolium bromide, Sigma) solution (from a stock solution of 5 mg/mL) was added to each well. After incubation at 37 °C for 4 h, 100 μL of SDS (Sigma-Aldrich, St. Louis, MO, USA) solution (10% in 0.01 M HCl; Merck, Darmstadt, Germany) were added to each well and the plates were further incubated at 37 °C overnight. OD was measured at 540/630 nm with Multiscan EX ELISA reader (Thermo Labsystems, Cheshire, WA). Combination index (CI) values at 50% of the growth inhibition dose (ED50), were determined using CompuSyn software (ComboSyn, Inc., Paramus, NJ) to plot four to five data points to each ratio.

The subject of series [2] is multidrug-resistant Colo 320 colonic adenocarcinoma cells. Description: MTT cytotoxicity assay (24 h), Colo 320. Particulars: Homo sapiens, COLO 320, 24 h, 24 h incubation, read-out: Cytotoxicity IC50, Colo320. It counts as cell-based. The protocol: (§1) Human colonic adenocarcinoma cell lines (Colo 205 doxorubicin-sensitive and Colo 320/MDR-LRP multidrug-resistant expressing ABCB1 (MDR1)-LRP), ATCC-CCL-220.1 (Colo 320) and CCL-222 (Colo 205) were purchased from LGC Promochem, Teddington, UK. The cells were cultured in RPMI 1640 medium supplemented with 10% heat-inactivated foetal bovine serum, 2 mM L-glutamine, 1 mM Na-pyruvate and 100 mM Hepes. The cell lines were incubated at 37 °C, in a 5% CO2, 95% air atmosphere. The semi-adherent human colon cancer cells were detached with Trypsin-Versene (EDTA) solution for 5 min at 37 °C.
(§2) MRC-5 non-cancerous human embryonic lung fibroblast and human colonic adenocarcinoma cell lines (doxorubicin-sensitive Colo 205 and multidrug-resistant Colo 320 colonic adenocarcinoma cells) were used to determine the effect of compounds on cell proliferation and growth. The effects of increasing concentrations of compounds on cell proliferation and growth were tested in 96-well flat-bottomed microtitre plates. The compounds were diluted in a volume of 100 μL of medium.
(§3) In case of the colonic adenocarcinoma cells, the 2-fold serial dilutions of compounds were prepared in 100 μL of RPMI 1640, horizontally. The semi-adherent colonic adenocarcinoma cells were treated with Trypsin-Versene (EDTA) solution. The density of the cells was adjusted to 6 × 10^3 cells (antiproliferative assay) or 1 × 10^4 cells (cytotoxicity assay) in 100 μL of RPMI 1640 medium, and was added to each well, with the exception of the medium control wells. The final volume of the wells containing compounds and cells was 200 μL.
(§4) The culture plates were incubated at 37 °C for 72 h (antiproliferative test) or 24 h (cytotoxicity test); at the end of the incubation period, 20 μL of MTT (thiazolyl blue tetrazolium bromide, Sigma, St. Louis, MO, USA) solution (from a stock solution of 5 mg/mL) were added to each well. After incubation at 37 °C for 4 h, 100 μL of sodium dodecyl sulphate (SDS) (Sigma) solution (10% in 0.01 M HCI) were added to each well and the plates were further incubated at 37 °C overnight. Cell growth was determined by measuring the optical density (OD) at 540/630 nm with Multiscan EX ELISA reader (Thermo Labsystems, Cheshire, WA, USA). Inhibition of the cell growth was determined according to the formula below: Inhibition %=100−[OD sample−OD medium control/OD cell control−OD medium control]×100
(§5) Results are expressed in terms of IC50, defined as the inhibitory dose that reduces the growth of the cells exposed to the tested compounds by 50%.
A general note: Tetrazolium dyes change colour on reduction, which living cells bring about.

Series [3] has the same test system. Description: MTT antiproliferative assay (72 h), Colo 320. It counts as cell-based, human. Particulars: for IC50: MTT, 72 h incubation, read-out: Antiproliferative IC50, Colo320. The protocol: as §1, §2, §3, §4, §5
Another series deals with MCF-7 mp53 cells. Details: method as in Sturgeon et al. [2005]. Particulars: ref Sturgeon et al. [2005]; cited from earlier work.
The subject of series [4] is doxorubicin-sensitive Colo 205 colonic adenocarcinoma cells. Description: MTT cytotoxicity assay (24 h), Colo 205. It is filed as cell-based, human. Particulars: Homo sapiens, COLO 205; MTT, 24 h incubation; read-out: Cytotoxicity IC50, Colo205. The procedure:
as §1, §2, §3, §4, §5

A short description of series [5]: MTT cytotoxicity assay (24 h), MRC-5. It is filed as cell-based. Particulars: human, MRC-5 embryonal lung fibroblast cells, 24 h incubation. The protocol: (§6) MRC-5 human embryonal lung fibroblast cell lines (ATCC CCL-171) were purchased from LGC Promochem, Teddington, UK. The cell line was cultured in Eagle’s Minimal Essential Medium (EMEM, containing 4.5 g/L glucose) supplemented with a non-essential amino acid mixture, a selection of vitamins and 10% heat-inactivated foetal bovine serum. The cell lines were incubated at 37 °C, in a 5% CO2, 95% air atmosphere.
as §2
(§7) The adherent human embryonal lung fibroblast cells were seeded overnight and cultured in 96-well flat-bottomed microtitre plates prior to the assay, using EMEM supplemented with 10% heat-inactivated foetal bovine serum. The density of the cells was adjusted to 6 × 10^3 cells (antiproliferative assay) or 1 × 10^4 cells (cytotoxicity assay) in 100 μL per well, the cells were seeded for 24 h at 37 °C, 5% CO2, then the medium was removed from the plates containing the cells, and the dilutions of compounds (200 µL) previously made in a separate plate were added to the cells in.
as §4, §5

In series [6] the test system is doxorubicin-sensitive Colo 205 colonic adenocarcinoma cells. Description: MTT antiproliferative assay (72 h), Colo 205. It counts as cell-based, human. Particulars: Homo sapiens, COLO 205, 72 h incubation, read-out: Antiproliferative IC50, Colo205. The protocol: as §1, §2, §3, §4, §5
Series [7] has as its system MRC-5 human embryonal lung fibroblast cell line. Description: MTT antiproliferative assay (72 h), MRC-5. It is filed as cell-based. Particulars: Homo sapiens, MRC5, 72 h incubation. The procedure:
as §6, §2, §7, §4, §5

Series [8] is described as follows: MTT cytotoxicity assay (24 h), Colo 205. It is filed as cell-based, human. Particulars: human colonic adenocarcinoma cell lines versus MRC-5, cytotoxicity; read-out: selectivity index [SI], cytotoxicity. The procedure:
as §1, §2, §3, §4, §5

Series [9] has as its system Staphylococcus aureus ATCC 25923. Description: Real-time ethidium bromide accumulation assay, S. aureus ATCC 25923. Particulars: EB accumulation, 60 min, positive control at 25 μM. It is filed as cell-based.
Description: (§8) The impact of compounds on EB accumulation was determined by the automated EB method using a CLARIOstar Plus plate reader (BMG Labtech, Aylesbury, UK). First, the bacterial strain was incubated until it reached an OD of 0.6 at 600 nm [Escherichia coli AG100 is incubated in Luria–Bertani (LB) broth and Staphylococcus aureus ATCC 25923 is incubated in tryptic soy broth (TSB)]. The culture was washed with PBS (pH 7.4) and centrifuged at 13,000 × g for 3 min, the cell pellet was re-suspended in PBS. The compounds were added at ½ MIC concentration (in case of >100 the concentration is 100 µM) to PBS containing a non-toxic concentration of EB (2 µg/mL). […] Then, the plates were placed into the CLARIOstar plate reader, and the fluorescence was monitored at excitation and emission wavelengths of 525 and 615 nm every minute for 1 h on a real-time basis. From the real-time data, the activity of the compounds, namely the relative fluorescence index (RFI) of the last time point (60 min) of the EB accumulation assay, was calculated according to the following formula: RFI=(RFtreated – RFuntreated)/RFuntreated where RFtreated is the relative fluorescence (RF) at the last time point of EB retention curve in the presence of an inhibitor, and RFuntreated is the RF at the last time point of the EB retention curve of the untreated control having the solvent control (DMSO). […]
Series [10] concerns the target T1, ABCB1 efflux pump (P-glycoprotein) (Homo sapiens, UniProt P08183).
T1 construct: The colonic adenocarcinoma cells (the doxorubicin-sensitive Colo 205 and the multidrug-resistant Colo 320); CCL-222 (Colo 205); host or cells: Colo 320/MDR-LRP (multidrug-resistant, overexpressing ABCB1) and Colo 205 (sensitive) human colon adenocarcinoma cells
Description: Rhodamine 123 retention by flow cytometry (ABCB1 inhibition). It counts as cell-based. Particulars: rhodamine 123, Colo 320 vs Colo 205, at 0.2 µM.
Description: This method is a fluorescence-based detection system which uses tariquidar as a reference inhibitor of the ABCB1 efflux pump (EP). The colonic adenocarcinoma cells (the doxorubicin-sensitive Colo 205 and the multidrug-resistant Colo 320) were adjusted to a density of 2 × 10^6/mL, re-suspended in serum-free RPMI 1640 medium and distributed in 0.5 mL aliquots into Eppendorf centrifuge tubes. The compounds were added at different concentrations (2 μM and 20 μM final concentrations, respectively), and the samples were incubated for 10 min at room temperature. […] The fluorescence intensity of the cell population was measured with a Partec CyFlow flow cytometer (Partec, Munster, Germany). […] The mean fluorescence intensity (%) was calculated for the treated MDR Colo 320 and sensitive Colo 205 cell lines as compared to the untreated cells. The fluorescence activity ratio (FAR) was calculated based on the following equation which relates the measured fluorescence values: FAR=Colo 320treated/Colo 320control/Colo 205treated/Colo 205control
The fluorescence dye, rhodamine 123 was used as a marker of the ABCB1 transporter activity to explore the potential inhibitory activity of the isolated compounds. Inside cells without overexpressing the P-glycoprotein, the rhodamine 123 accumulates and resulting in an increase in fluorescence intensity (λex = 490/λem = 525 nm). […]

The test system of another series is Escherichia coli AG100. Particulars: EB accumulation, 60 min, positive control at 50 μM.

A word on the IC50: it is the concentration that gives 50% inhibition.

T1 sequence (P08183 whole entry): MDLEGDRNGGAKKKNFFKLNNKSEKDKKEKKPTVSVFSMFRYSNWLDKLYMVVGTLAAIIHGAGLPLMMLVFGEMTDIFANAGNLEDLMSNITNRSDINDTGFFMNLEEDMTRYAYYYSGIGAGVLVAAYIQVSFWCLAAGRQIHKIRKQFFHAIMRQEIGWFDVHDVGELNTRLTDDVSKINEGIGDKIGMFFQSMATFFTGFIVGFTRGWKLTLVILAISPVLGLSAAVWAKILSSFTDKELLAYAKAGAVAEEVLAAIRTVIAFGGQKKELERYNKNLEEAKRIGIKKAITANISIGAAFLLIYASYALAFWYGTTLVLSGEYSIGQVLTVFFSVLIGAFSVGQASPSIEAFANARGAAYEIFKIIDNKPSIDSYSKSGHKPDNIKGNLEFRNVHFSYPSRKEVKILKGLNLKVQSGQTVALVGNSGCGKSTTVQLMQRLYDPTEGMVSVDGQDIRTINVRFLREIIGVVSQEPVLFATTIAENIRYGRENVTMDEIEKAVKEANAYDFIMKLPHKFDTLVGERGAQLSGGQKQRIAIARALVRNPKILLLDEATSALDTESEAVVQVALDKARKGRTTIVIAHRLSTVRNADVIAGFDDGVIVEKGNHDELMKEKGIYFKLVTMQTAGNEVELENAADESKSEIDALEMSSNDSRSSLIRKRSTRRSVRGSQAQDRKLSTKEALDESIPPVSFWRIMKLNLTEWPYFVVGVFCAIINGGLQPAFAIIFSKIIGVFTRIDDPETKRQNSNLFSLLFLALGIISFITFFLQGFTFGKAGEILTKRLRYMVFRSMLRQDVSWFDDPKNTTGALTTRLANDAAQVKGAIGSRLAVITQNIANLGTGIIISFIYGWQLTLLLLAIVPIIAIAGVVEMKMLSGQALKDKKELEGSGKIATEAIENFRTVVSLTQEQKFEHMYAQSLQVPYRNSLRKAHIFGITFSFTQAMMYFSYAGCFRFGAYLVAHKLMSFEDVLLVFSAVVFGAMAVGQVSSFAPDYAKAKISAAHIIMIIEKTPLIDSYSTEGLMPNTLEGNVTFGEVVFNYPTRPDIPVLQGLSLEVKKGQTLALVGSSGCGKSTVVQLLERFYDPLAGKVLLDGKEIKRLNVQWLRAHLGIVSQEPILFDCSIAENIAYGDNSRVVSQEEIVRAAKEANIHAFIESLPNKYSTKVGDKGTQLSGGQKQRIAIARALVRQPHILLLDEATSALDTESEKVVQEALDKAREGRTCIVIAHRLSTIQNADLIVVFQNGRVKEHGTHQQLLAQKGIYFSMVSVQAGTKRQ
Description for Escherichia coli AG100: as §8

Consider `C=C1C(=O)O[C@@H]2[C@H]1CC[C@H](C)[C@@H]1CCC(=O)O[C@@]21C` [Compound 1, psilostachyin C], for which the Type of interaction entry in series [1] (starting concentration 50 µM, ratio 11.6:1) is reported as “Strong antagonism”; in [1] (starting concentration 50 µM, ratio 23.2:1), “Antagonism”; in [1] (starting concentration 50 µM, ratio 46.4:1), “Slight antagonism”; in series [1] (starting concentration 50 µM, ratio 92.8:1), “Antagonism”; in series [1] (starting concentration 50 µM, ratio 185:1), “Moderate antagonism”; in [1] (starting concentration 50 µM, ratio compound:doxorubicin 5.8:1) it was “Strong antagonism”. The half-inhibitory concentration (IC50) in [2] was 28.71 ± 0.11 µM; in [3] (Homo sapiens, COLO 320, 72 h) it was 14.7 ± 0.82 µM; in series [4], 26.6 ± 0.48 µM; in [6], 15.6 ± 0.83 µM; in [7], 35.1 ± 4.03 µM. The “effect on mitosis of MCF-7 mp53 cells (G2 checkpoint inhibitors)” value in the series with MCF-7 mp53 cells was “blocked MCF-7 mp53 cells in mitosis”. In series [5], this compound showed an IC50 at 24 h of 52.7 ± 2.62 µM.

As to `CC(=O)O[C@@H]1C[C@H]2[C@@H](C)CC[C@@H]3[C@@H](OC(=O)[C@@H]3C)[C@]2(C)C1=O` [Compound 2, acetoxydihydrodamsin], the Type of interaction entry in [1] (starting concentration 15 µM, ratio 1.74:1) was “Antagonism”; in [1] (starting concentration 15 µM, ratio 3.48:1), “Antagonism”; in [1] (starting concentration 15 µM, ratio 6.96:1), “Antagonism”; in [1] (starting concentration 15 µM, ratio 13.92.1) it was “Antagonism”; in series [1] (starting concentration 15 µM, ratio 27.84:1), “Moderate antagonism”; in series [1] (starting concentration 15 µM, ratio 55.68:1), “Moderate antagonism”. The IC50 in series [2] was 10.8 ± 0.22 µM; in [3] (Homo sapiens, COLO 320, 72 h), 3.67 ± 0.35 µM; in [4] it was 7.64 ± 0.37 µM; in series [6], 5.14 ± 0.55 µM; in [7] it was 11 ± 0.31 µM. For the same compound, the selectivity ratio at 24 h in series [8] came to 3.11. In series [5], this compound showed an IC50 at 24 h of 23.8 ± 1.06 µM.

For the compound `C=C1C(=O)O[C@@H]2[C@H]1CC[C@H](C)[C@]1(CCC(=O)O1)[C@@]2(C)O` [Compound 4, psilostachyin], the Type of interaction result in series [1] (starting concentration 25 µM, ratio 2.9:1) was “Additive effect”; in [1] (starting concentration 25 µM, ratio 5.8:1) it was “Moderate antagonism”; in [1] (starting concentration 25 µM, ratio 11.6:1) it was “Synergism”; in series [1] (starting concentration 25 µM, ratio 23.2:1), “Antagonism”; in series [1] (starting concentration 25 µM, ratio 46.4:1) it was “Moderate antagonism”; in [1] (starting concentration 25 µM, ratio 92.2:1), “Slight antagonism”. Also, in [3] (Colo320 versus MRC-5, cell proliferation inhibition), the “selectivity index (SI), antiproliferative” value worked out at 3.04. For the same compound, the IC50 in series [3] (Homo sapiens, COLO 320, 72 h) turned out to be 5.29 µM; in series [3] it was 8.78 ± 0.22 µM; in series [4] it was 42.4 ± 2.37 µM; in series [6], 14.4 ± 1 µM; in [7] it was 26.7 ± 0.51 µM. Moreover, in the series on MCF-7 mp53 cells, the “effect on mitosis of MCF-7 mp53 cells (G2 checkpoint inhibitors)” value is given as “blocked MCF-7 mp53 cells in mitosis”. This compound also displayed an IC50 at 24 h in series [5] of 41.8 ± 2.43 µM.

With `COC(=O)[C@H]1[C@H]2C[C@@H]3c4[nH]c5cc(OC)ccc5c4CCN3C[C@H]2C[C@@H](OC(=O)c2cc(OC)c(OC)c(OC)c2)[C@@H]1OC` [reserpine], the “RFI (relative fluorescence index)” value in series [9] amounted to 2.77.

In the case of `COc1cc2c(cc1OC)CN(CCc1ccc(NC(=O)c3cc(OC)c(OC)cc3NC(=O)c3cnc4ccccc4c3)cc1)CC2` [tariquidar], the “FAR value (fluorescence activity ratio)” value in series [10] turned out to be 6.6.

Consider “carbonyl cyanide m-chlorophenylhydrazine [CCCP]”, for which the “RFI (relative fluorescence index)” value in the series with Escherichia coli AG100 was 1.34.
